Assay results taken from patent US20230364070A1, “PYRROLO[3,2-C]PYRIDIN-4-ONE DERIVATIVES USEFUL IN THE TREATMENT OF CANCER” (Scorpion Therapeutics, Inc., priority 2020, published 2023).

Legend:
Format in all cases: cell-based
Ba/F3 cells with EGFR WT = target: T1, Ba/F3 cells with EGFR WT (Homo sapiens, UniProt P00533); test: EGFR activity: Ba/F3 cell viability (CellTiter-Glo, 72 h), EGFR WT; conditions: read-out: BaF3 WT IC50
T1 construct: expressed in transfected cells; host or cells: Ba/F3 (murine pro-B cells), retroviral transduction, puromycin selection, maintained with EGF
T1 sequence (P00533 25-1210): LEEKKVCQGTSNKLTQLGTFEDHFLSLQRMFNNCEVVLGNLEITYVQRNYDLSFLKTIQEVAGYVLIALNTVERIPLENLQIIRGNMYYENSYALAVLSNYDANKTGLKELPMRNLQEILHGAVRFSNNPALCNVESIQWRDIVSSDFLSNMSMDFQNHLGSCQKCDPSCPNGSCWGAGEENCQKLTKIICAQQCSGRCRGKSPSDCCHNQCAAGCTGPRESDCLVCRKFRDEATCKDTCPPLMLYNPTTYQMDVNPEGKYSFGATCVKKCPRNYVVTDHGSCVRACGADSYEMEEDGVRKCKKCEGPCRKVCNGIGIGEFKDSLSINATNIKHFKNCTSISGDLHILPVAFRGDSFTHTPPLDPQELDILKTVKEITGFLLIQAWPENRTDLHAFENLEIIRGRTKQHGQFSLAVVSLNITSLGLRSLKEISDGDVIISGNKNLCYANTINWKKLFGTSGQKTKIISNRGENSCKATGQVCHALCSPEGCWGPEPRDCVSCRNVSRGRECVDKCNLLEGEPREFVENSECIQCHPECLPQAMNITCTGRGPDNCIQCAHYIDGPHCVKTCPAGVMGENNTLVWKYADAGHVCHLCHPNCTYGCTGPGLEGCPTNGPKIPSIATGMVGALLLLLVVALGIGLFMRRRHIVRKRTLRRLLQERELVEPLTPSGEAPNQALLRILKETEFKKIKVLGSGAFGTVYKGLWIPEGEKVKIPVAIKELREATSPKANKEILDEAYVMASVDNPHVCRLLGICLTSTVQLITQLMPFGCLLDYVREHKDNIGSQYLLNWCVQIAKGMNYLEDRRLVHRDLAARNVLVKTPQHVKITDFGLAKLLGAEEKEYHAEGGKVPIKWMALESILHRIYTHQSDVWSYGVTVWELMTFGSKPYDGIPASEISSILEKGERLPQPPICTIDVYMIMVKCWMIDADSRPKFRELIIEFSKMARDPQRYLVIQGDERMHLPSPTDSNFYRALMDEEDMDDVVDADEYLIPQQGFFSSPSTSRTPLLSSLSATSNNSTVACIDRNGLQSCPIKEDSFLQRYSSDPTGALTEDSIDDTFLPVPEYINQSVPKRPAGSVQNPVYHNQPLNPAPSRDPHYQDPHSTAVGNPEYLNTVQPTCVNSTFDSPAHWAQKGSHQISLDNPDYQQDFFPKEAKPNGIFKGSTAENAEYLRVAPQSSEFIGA

[1] = target: T2, Ba/F3 cells with EGFR exon 20 NPG Ins D770_N771 (Homo sapiens, UniProt P00533, INS770NPG); test: EGFR activity: Ba/F3 cell viability (CellTiter-Glo, 72 h), EGFR exon 20 NPG insertion; conditions: EGFR exon 20 NPG Ins D770_N771, cell viability, read-out: BaF3 NPG IC50
T2 construct: expressed in transfected cells; host or cells: Ba/F3 (murine pro-B cells), retroviral transduction, puromycin selection, IL3-independent pool
T2 sequence (P00533 with tags, fused parts or gaps INS770NPG): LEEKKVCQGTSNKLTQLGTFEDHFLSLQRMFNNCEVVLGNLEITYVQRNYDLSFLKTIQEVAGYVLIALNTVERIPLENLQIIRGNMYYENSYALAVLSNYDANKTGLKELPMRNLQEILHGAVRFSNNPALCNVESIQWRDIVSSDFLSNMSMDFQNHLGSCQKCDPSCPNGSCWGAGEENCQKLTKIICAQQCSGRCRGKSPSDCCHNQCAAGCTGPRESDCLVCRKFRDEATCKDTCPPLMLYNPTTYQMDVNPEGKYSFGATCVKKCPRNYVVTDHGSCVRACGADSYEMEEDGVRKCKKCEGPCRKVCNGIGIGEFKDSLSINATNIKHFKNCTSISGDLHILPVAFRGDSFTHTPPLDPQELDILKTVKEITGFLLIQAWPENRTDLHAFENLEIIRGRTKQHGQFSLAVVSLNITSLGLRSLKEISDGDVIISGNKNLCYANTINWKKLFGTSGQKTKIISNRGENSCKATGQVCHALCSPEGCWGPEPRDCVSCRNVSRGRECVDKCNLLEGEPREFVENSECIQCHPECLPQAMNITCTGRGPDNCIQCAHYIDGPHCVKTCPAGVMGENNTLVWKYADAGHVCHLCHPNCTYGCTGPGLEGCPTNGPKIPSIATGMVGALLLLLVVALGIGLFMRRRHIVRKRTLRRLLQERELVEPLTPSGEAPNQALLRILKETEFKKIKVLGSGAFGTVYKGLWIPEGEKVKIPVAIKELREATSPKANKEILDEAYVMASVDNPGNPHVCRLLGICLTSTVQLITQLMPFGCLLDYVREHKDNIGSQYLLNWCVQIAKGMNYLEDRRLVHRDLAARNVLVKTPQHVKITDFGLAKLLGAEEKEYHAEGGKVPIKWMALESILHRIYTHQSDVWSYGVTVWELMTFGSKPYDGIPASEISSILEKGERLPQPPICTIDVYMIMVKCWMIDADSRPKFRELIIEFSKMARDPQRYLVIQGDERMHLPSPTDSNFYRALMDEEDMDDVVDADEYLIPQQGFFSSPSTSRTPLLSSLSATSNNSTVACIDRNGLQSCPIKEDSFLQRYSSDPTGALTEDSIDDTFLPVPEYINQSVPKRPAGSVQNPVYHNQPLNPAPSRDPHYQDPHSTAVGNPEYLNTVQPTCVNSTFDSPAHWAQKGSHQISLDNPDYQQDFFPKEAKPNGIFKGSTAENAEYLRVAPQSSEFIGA

pEGFR in CUTO14 cells = target: T3, pEGFR in CUTO14 cells (Homo sapiens, UniProt P00533, DUP767-769); test: Inhibitor activity on EGFR phosphorylation (pEGFR AlphaLISA, 2 h), CUTO14 cells
T3 construct: endogenous in cells; host or cells: CUTO14 cells
T3 sequence (P00533 with tags, fused parts or gaps DUP767-769): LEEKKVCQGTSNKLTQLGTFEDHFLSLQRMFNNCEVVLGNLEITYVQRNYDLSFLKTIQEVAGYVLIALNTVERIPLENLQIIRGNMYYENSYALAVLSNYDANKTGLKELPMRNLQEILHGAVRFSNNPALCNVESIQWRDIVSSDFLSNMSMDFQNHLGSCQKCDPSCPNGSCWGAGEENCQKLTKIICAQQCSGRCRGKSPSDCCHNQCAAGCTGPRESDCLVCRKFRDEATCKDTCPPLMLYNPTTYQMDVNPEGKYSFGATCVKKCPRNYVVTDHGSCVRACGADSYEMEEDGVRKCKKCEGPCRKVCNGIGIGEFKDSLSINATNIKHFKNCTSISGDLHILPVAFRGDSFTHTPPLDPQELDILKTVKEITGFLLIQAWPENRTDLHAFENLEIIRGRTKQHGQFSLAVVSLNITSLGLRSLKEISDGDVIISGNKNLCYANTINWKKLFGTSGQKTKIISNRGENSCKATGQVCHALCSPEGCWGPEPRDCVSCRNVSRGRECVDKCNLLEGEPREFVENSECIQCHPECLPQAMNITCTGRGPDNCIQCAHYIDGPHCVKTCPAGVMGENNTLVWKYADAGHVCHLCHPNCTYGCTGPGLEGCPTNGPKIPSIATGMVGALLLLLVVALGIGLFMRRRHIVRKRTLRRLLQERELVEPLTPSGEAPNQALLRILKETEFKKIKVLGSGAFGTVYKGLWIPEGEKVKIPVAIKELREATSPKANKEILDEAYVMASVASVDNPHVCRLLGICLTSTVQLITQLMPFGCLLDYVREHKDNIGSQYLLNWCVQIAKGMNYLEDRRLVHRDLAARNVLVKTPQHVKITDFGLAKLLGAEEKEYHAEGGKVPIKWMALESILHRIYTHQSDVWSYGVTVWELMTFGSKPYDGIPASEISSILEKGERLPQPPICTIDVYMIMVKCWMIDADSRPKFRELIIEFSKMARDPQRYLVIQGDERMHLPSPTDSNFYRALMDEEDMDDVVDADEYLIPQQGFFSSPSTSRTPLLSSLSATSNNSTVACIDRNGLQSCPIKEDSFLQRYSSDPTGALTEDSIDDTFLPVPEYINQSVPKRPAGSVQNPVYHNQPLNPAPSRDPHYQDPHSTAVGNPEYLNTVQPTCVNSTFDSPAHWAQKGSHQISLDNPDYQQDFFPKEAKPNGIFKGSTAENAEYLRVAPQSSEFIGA
Description: CUTO14 cells were obtained from Dr. Robert C. Doebele at the University of Colorado.
Shake 350 rpm for 1 hr in the dark • 3.4 Prepare donor mix under low light conditions prior to use. Dispense 5 μL of donor mix to all the wells. Mix well on the shaker, seal and wrap in aluminum foil and incubate 1.5 hrs at room temperature in the dark • 3.5 Transfer 18.5 μL mixture to OptiPlate 384, and read using an Envision.

[2] = target: T4, Ba/F3 cells with EGFR exon 20 ASV Ins V769_D770 (Homo sapiens, UniProt P00533, INS769ASV); test: EGFR activity: Ba/F3 cell viability (CellTiter-Glo, 72 h), EGFR exon 20 ASV insertion; conditions: EGFR exon 20 ASV Ins V769_D770, cell viability, read-out: BaF3 ASV IC50
T4 construct: expressed in transfected cells; host or cells: Ba/F3 (murine pro-B cells), retroviral transduction, puromycin selection, IL3-independent pool
T4 sequence (P00533 with tags, fused parts or gaps INS769ASV): as the sequence (P00533 with tags, fused parts or gaps DUP767-769) above

IC50 (pEGFR in CUTO14 cells) | Structure (SMILES) | IC50 (Ba/F3 cells with EGFR WT) | IC50 [1] | IC50 [2]
< 100 nM | C=CC(=O)N1CCOC[C@H]1COc1cnccc1-c1[nH]c2c(c1Nc1cccc(F)c1OC)C(=O)NCC2 [compound 190] | 100 to 1000 nM | < 100 nM | < 100 nM
< 100 nM | C=CC(=O)N1[C@H]2CC[C@H](C2)[C@@H]1C#Cc1cnccc1-c1[nH]c2c(c1Nc1cccc(Cl)c1OC)C(=O)NCC2 [compound 236, 3-[(3-chloro-2-methoxyphenyl)amino]-2-(3-{2-[(1S,3R,4R)-2-(prop-2-enoyl)-2-azabicyclo[2.2.1]heptan-3-yl]ethynyl}pyridin-4-yl)-1H,5H,6H,7H-pyrrolo[3,2-c]pyridin-4-one] | 100 to 1000 nM | < 100 nM | < 100 nM
< 100 nM | C=CC(=O)N1[C@H](C#Cc2cnccc2-c2[nH]c3c(c2Nc2cccc(Cl)c2OC)C(=O)NCC3)CC[C@@H]1C [compound 240, 3-[(3-chloro-2-methoxyphenyl)amino]-2-(3-{2-[(2S,5S)-5-methyl-1-(prop-2-enoyl)pyrrolidin-2-yl]ethynyl}pyridin-4-yl)-1H,5H,6H,7H-pyrrolo[3,2-c]pyridin-4-one] | < 100 nM | < 100 nM | < 100 nM
< 100 nM | C=CC(=O)N1[C@H]2CC[C@H](C2)[C@@H]1C#Cc1cnccc1-c1[nH]c2c(c1Nc1cccc(F)c1OC)C(=O)NCC2 [compound 252, 3-[(3-fluoro-2-methoxyphenyl)amino]-2-(3-{2-[(1S,3R,4R)-2-(prop-2-enoyl)-2-azabicyclo[2.2.1]heptan-3-yl]ethynyl}pyridin-4-yl)-1H,5H,6H,7H-pyrrolo[3,2-c]pyridin-4-one] | 100 to 1000 nM | < 100 nM | < 100 nM
< 100 nM | C=CC(=O)N1[C@H](C#Cc2cnccc2-c2[nH]c3c(c2Nc2cccc(F)c2OC)C(=O)NCC3)CC[C@@H]1C [compound 255, 3-[(3-fluoro-2-methoxyphenyl)amino]-2-(3-{2-[(2S,5S)-5-methyl-1-(prop-2-enoyl)pyrrolidin-2-yl]ethynyl}pyridin-4-yl)-1H,5H,6H,7H-pyrrolo[3,2-c]pyridin-4-one] | < 100 nM | < 100 nM | < 100 nM
< 100 nM | CC#CC(=O)N1CC[C@@H]1COc1cnccc1-c1[nH]c2c(c1Nc1cccc(F)c1OC)C(=O)NCC2 [compound 289, 2-(3-{[(2R)-1-(but-2-ynoyl)azetidin-2-yl]methoxy}pyridin-4-yl)-3-[(3-fluoro-2-methoxyphenyl)amino]-1H,5H,6H,7H-pyrrolo[3,2-c]pyridin-4-one] |  |  | 
< 100 nM | CC#CC(=O)N1CCC[C@]1(C)C#Cc1cnccc1-c1[nH]c2c(c1Nc1cccc(F)c1OC)C(=O)NCC2 [compound 291, 2-(3-{2-[(2R)-1-(but-2-ynoyl)-2-methylpyrrolidin-2-yl]ethynyl}pyridin-4-yl)-3-[(3-fluoro-2-methoxyphenyl)amino]-1H,5H,6H,7H-pyrrolo[3,2-c]pyridin-4-one] |  |  | 
< 100 nM | C=C(F)C(=O)N1CC[C@H]1COc1cnccc1-c1[nH]c2c(c1Nc1cccc(F)c1OC)C(=O)NCC2 [compound 296, 3-[(3-fluoro-2-methoxyphenyl)amino]-2-(3-{[(2S)-1-(2-fluoroprop-2-enoyl)azetidin-2-yl]methoxy}pyridin-4-yl)-1H,5H,6H,7H-pyrrolo[3,2-c]pyridin-4-one] |  |  | 
< 100 nM | CC#CC(=O)NC(C)(C)C#Cc1cnccc1-c1[nH]c2c(c1Nc1cccc(F)c1OC)C(=O)NCC2 [compound 302, N-[4-(4-{3-[(3-fluoro-2-methoxyphenyl)amino]-4-oxo-1H,5H,6H,7H-pyrrolo[3,2-c]pyridin-2-yl}pyridin-3-yl)-2-methylbut-3-yn-2-yl]but-2-ynamide] |  |  | 
< 100 nM | C=CC(=O)N1CC2CC1(C#Cc1cnccc1-c1[nH]c3c(c1Nc1cccc(F)c1OC)C(=O)NCC3)C2 [compound 318, 3-[(3-fluoro-2-methoxyphenyl)amino]-2-(3-{2-[2-(prop-2-enoyl)-2-azabicyclo[2.1.1]hexan-1-yl]ethynyl}pyridin-4-yl)-1H,5H,6H,7H-pyrrolo[3,2-c]pyridin-4-one] |  |  | 
< 100 nM | C=CC(=O)N1C(C)CC1COc1cnccc1-c1[nH]c2c(c1Nc1cccc(F)c1OC)C(=O)NCC2 (centres unmarked) [compound 333] |  |  | 
< 100 nM | COc1c(F)cccc1Nc1c(-c2ccncc2C#C[C@@]2(C)CCCN2C(=O)/C=C/CN(C)C)[nH]c2c1C(=O)NCC2 [compound 335, 2-(3-{2-[(2R)-1-[(2E)-4-(dimethylamino)but-2-enoyl]-2-methylpyrrolidin-2-yl]ethynyl}pyridin-4-yl)-3-[(3-fluoro-2-methoxyphenyl)amino]-1H,5H,6H,7H-pyrrolo[3,2-c]pyridin-4-one] |  |  | 
< 100 nM | COc1c(F)cccc1Nc1c(-c2ccncc2C#C[C@H]2CC(C)(C)CN2C(=O)/C=C/CN(C)C)[nH]c2c1C(=O)NCC2 [compound 344, 2-(3-{2-[(2R)-1-[(2E)-4-(dimethylamino)but-2-enoyl]-4,4-dimethylpyrrolidin-2-yl]ethynyl}pyridin-4-yl)-3-[(3-fluoro-2-methoxyphenyl)amino]-1H,5H,6H,7H-pyrrolo[3,2-c]pyridin-4-one] |  |  | 
< 100 nM | COc1c(F)cccc1Nc1c(-c2ccncc2C#C[C@H]2C[C@@H]3C[C@@H]3N2C(=O)/C=C/CN(C)C)[nH]c2c1C(=O)NCC2 [compound 345, 2-(3-{2-[(1S,3R,5S)-2-[(2E)-4-(dimethylamino)but-2-enoyl]-2-azabicyclo[3.1.0]hexan-3-yl]ethynyl}pyridin-4-yl)-3-[(3-fluoro-2-methoxyphenyl)amino]-1H,5H,6H,7H-pyrrolo[3,2-c]pyridin-4-one] |  |  | 
< 100 nM | CC#CC(=O)N1CC[C@@H]1COc1cnccc1-c1[nH]c2c(c1Nc1cccc(Cl)c1CC)C(=O)NCC2 [compound 348, 2-(3-{[(2R)-1-(but-2-ynoyl)azetidin-2-yl]methoxy}pyridin-4-yl)-3-[(3-chloro-2-ethylphenyl)amino]-1H,5H,6H,7H-pyrrolo[3,2-c]pyridin-4-one] |  |  | 
< 100 nM | COc1c(Cl)cccc1Nc1c(-c2ccncc2C#C[C@@]2(C)CCCN2C(=O)/C=C/CN(C)C)[nH]c2c1C(=O)NCC2 [compound 362, 3-[(3-chloro-2-methoxyphenyl)amino]-2-(3-{2-[(2R)-1-[(2E)-4-(dimethylamino)but-2-enoyl]-2-methylpyrrolidin-2-yl]ethynyl}pyridin-4-yl)-1H,5H,6H,7H-pyrrolo[3,2-c]pyridin-4-one] |  |  | 
< 100 nM | C=C(F)C(=O)N1CC[C@H]1COc1cnccc1-c1[nH]c2c(c1Nc1cccc(Cl)c1OC)C(=O)NCC2 [compound 363, 3-[(3-chloro-2-methoxyphenyl)amino]-2-(3-{[(2S)-1-(2-fluoroprop-2-enoyl)azetidin-2-yl]methoxy}pyridin-4-yl)-1H,5H,6H,7H-pyrrolo[3,2-c]pyridin-4-one] |  |  | 
< 100 nM | C=CC(=O)N[C@@H](C)C#Cc1cnccc1-c1[nH]c2c(c1Nc1cccc(F)c1OC)C(=O)NCC2 [compound 375, N-[(2S)-4-(4-{3-[(3-fluoro-2-methoxyphenyl)amino]-4-oxo-1H,5H,6H,7H-pyrrolo[3,2-c]pyridin-2-yl}pyridin-3-yl)but-3-yn-2-yl]prop-2-enamide] |  |  | 
< 100 nM | C=CC(=O)N[C@@H](C)C#Cc1cnccc1-c1[nH]c2c(c1Nc1cccc(Cl)c1OC)C(=O)NCC2 [compound 376, N-[(2S)-4-(4-{3-[(3-chloro-2-methoxyphenyl)amino]-4-oxo-1H,5H,6H,7H-pyrrolo[3,2-c]pyridin-2-yl}pyridin-3-yl)but-3-yn-2-yl]prop-2-enamide] |  |  | 
< 100 nM | COc1c(Cl)cccc1Nc1c(-c2ccncc2C#C[C@H]2C[C@@H]3C[C@@H]3N2C(=O)/C=C/CN(C)C)[nH]c2c1C(=O)NCC2 [compound 466, 3-[(3-chloro-2-methoxyphenyl)amino]-2-(3-{2-[(1S,3R,5S)-2-[(2E)-4-(dimethylamino)but-2-enoyl]-2-azabicyclo[3.1.0]hexan-3-yl]ethynyl}pyridin-4-yl)-1H,5H,6H,7H-pyrrolo[3,2-c]pyridin-4-one] |  |  | 
< 100 nM | C=CC(=O)N1CC(C)(C)[C@H]1COc1cnccc1-c1[nH]c2c(c1Nc1cccc(Cl)c1OC)C(=O)NCC2 [compound 512, 3-[(3-chloro-2-methoxyphenyl)amino]-2-(3-{[(2S)-3,3-dimethyl-1-(prop-2-enoyl)azetidin-2-yl]methoxy}pyridin-4-yl)-1H,5H,6H,7H-pyrrolo[3,2-c]pyridin-4-one] |  |  | 
> 1000 nM | C=CC(=O)N1CC[C@@]1(C)C#Cc1cnccc1-c1[nH]c2c(c1Nc1cccc(Cl)c1OC)C(=O)NCC2 [compound 550, 3-[(3-chloro-2-methoxyphenyl)amino]-2-(3-{2-[(2S)-2-methyl-1-(prop-2-enoyl)azetidin-2-yl]ethynyl}pyridin-4-yl)-1H,5H,6H,7H-pyrrolo[3,2-c]pyridin-4-one] |  |  | 
> 1000 nM | C=CC(=O)N1CC[C@]1(C)C#Cc1cnccc1-c1[nH]c2c(c1Nc1cccc(Cl)c1OC)C(=O)NCC2 [compound 551, 3-[(3-chloro-2-methoxyphenyl)amino]-2-(3-{2-[(2R)-2-methyl-1-(prop-2-enoyl)azetidin-2-yl]ethynyl}pyridin-4-yl)-1H,5H,6H,7H-pyrrolo[3,2-c]pyridin-4-one] |  |  | 
